Assay results from patent US20120142645A1, “NEUROACTIVE STEROID COMPOSITIONS AND METHODS OF USE FOR LOWERING CHOLESTEROL” (priority 2009, published 2012).

Assays:
[1] = single oral dose 175 mg; over the course of 4-8 hours; Roberts, 1995; cited from earlier work
[2] = tested on: patients with schizophrenia or schizoaffective disorder; assay: MATRICS/MCCB cognitive battery; same 8-week adjunctive pregnenolone trial; assay type: in vivo, human; conditions: for MATRICS/MCCB Composite score: head prints Raw Scores; for MATRICS/MCCB Composite score / MATRICS/MCCB BACS, symbol coding subtest raw score / MATRICS/MCCB Brief Visuospatial Memory Test-Rev. raw score / MATRICS/MCCB Category fluency test, animal naming raw score / MATRICS/MCCB Continuous Performance Test (CPT), Identical Pairs version-Average d′ raw score / MATRICS/MCCB Hopkins Verbal Learning Test raw score / MATRICS/MCCB Letter-Number Span test raw score / MATRICS/MCCB Mayer-Salovey-Caruso Emotional Intelligence Test, managing emotions branch raw score / MATRICS/MCCB Neuropsychological Assessment Battery, mazes subtest raw score / MATRICS/MCCB Trail Making Test, Part A raw score / MATRICS/MCCB Wechsler Memory Scale, 3rd ed., spatial span subtest raw score: mean, n = 9; for MATRICS/MCCB Composite, difference PG vs placebo in T-score change: column head prints Placebo
Experimental: Study Design and Subjects. Disclosed herein is a placebo-controlled, double-blind, parallel group, randomized trial of adjunctive pregnenolone for the treatment of cognitive and negative symptoms in patients with schizophrenia or schizoaffective disorder. […] Patients received a total of 6 study visits, which took place every two weeks. […] The trial was conducted at a single site, the Durham Veterans Affairs Medical Center in Durham, N.C. The protocol was approved by the local institutional review board and conducted under FDA Investigational New Drug (IND) #71,768. The ClinicalTrials.gov number for this study is NCT00560937.
Cognitive symptoms were assessed by the Brief Assessment of Cognition in Schizophrenia (BAGS; Keefe et al., 2004; Keefe et al., 2008), and the MATRICS Consensus Cognitive Battery (Nuechterlein & Green, 2006; Nuechterlein et al., 2008). It is believed that no clinical trial to date has reported both of these cognitive assessments within the same study. The BAGS and MATRICS batteries were administered two weeks following the screening visit (following the completion of the two-week placebo lead-in phase at Visit 2), and at two 4-week intervals thereafter (at midpoint following randomization at Visit 4 and at the final visit (Visit 6).
The BAGS cognitive battery utilizes the following assessments in the respective targeted domains (Keefe et al., 2004; Keefe et al., 2008): list learning (verbal memory), digit sequencing task (working memory), token motor task (motor speed), verbal fluency (processing speed), symbol coding (attention and processing speed), and the Tower of London test (executive functions/reasoning and problem solving). The MATRICS cognitive battery utilizes the following assessments: Trail Making Test, Part A and the symbol coding subtest of the BAGS (both assess speed of processing), the Hopkins Verbal Learning Test-Revised, immediate recall (three learning trials only) [verbal learning], the Wechsler Memory Scale, 3rd ed., spatial span subtest (working memory, nonverbal), the Letter-Number Span test (working memory, verbal), the Neuropsychological Assessment Battery, mazes subtest (reasoning and problem solving), the Brief Visuospatial Memory Test-Revised (visual learning), the Category Fluency Test (animal naming) [speed of processing], the Mayer-Salovey-Caruso Emotional Intelligence Test, managing emotions branch (social cognition), and the Continuous Performance Test, Identical Pairs version (attention/vigilance) Of note, the symbol coding subtest of the BAGS was administered only once per visit at Visits 2, 4, and 6, although it is a component of both the BAGS and MATRICS cognitive batteries, in order to avoid potentially confounding practice effects.

[3] = Week 0 to Week 8, listed as pregnenolone

SMILES: CC(=O)[C@H]1CC[C@H]2[C@@H]3CC=C4C[C@@H](O)CC[C@]4(C)[C@H]3CC[C@]12C [PG, pregnenolone]
- Serum pregnenolone levels after single oral dose [1]: approximately doubles
- MATRICS/MCCB Composite score ([2]; Week 0 (baseline)): 29.00
- MATRICS/MCCB BACS, symbol coding subtest raw score ([2]; Week 0 (baseline)): 36.89
- MATRICS/MCCB Brief Visuospatial Memory Test-Rev. raw score ([2]; Week 0 (baseline)): 20.22
- MATRICS/MCCB Category fluency test, animal naming raw score ([2]; Week 0 (baseline)): 18.33
- MATRICS/MCCB Continuous Performance Test (CPT), Identical Pairs version-Average d′ raw score ([2]; Week 0 (baseline)): 1.42
- MATRICS/MCCB Hopkins Verbal Learning Test raw score ([2]; Week 0 (baseline)): 18.56
- MATRICS/MCCB Letter-Number Span test raw score ([2]; Week 0 (baseline)): 11.44
- MATRICS/MCCB Mayer-Salovey-Caruso Emotional Intelligence Test, managing emotions branch raw score ([2]; Week 0 (baseline)): 86.89
- MATRICS/MCCB Neuropsychological Assessment Battery, mazes subtest raw score ([2]; Week 0 (baseline)): 13.56
- MATRICS/MCCB Trail Making Test, Part A raw score ([2]; Week 0 (baseline)): 42.11
- MATRICS/MCCB Wechsler Memory Scale, 3rd ed., spatial span subtest raw score ([2]; Week 0 (baseline)): 13.11
- MATRICS/MCCB Attention/vigilance domain, change in T-score ([2]; Week 0 to Week 8): 7.56
- MATRICS/MCCB Attention/vigilance domain, difference PG vs placebo in T-score change ([2]; Week 0 to Week 8): 6.89
- MATRICS/MCCB Composite, change in T-score ([2]; Week 0 to Week 8): 7.00
- MATRICS/MCCB Reasoning and Problem Solving domain, change in T-score ([2]; Week 0 to Week 8): 6.22
- MATRICS/MCCB Reasoning and Problem Solving domain, difference PG vs placebo in T-score change ([2]; Week 0 to Week 8): 0.00
- MATRICS/MCCB Social cognition domain, change in T-score ([2]; Week 0 to Week 8): −0.89
- MATRICS/MCCB Social cognition domain, difference PG vs placebo in T-score change ([2]; Week 0 to Week 8): −9.22
- MATRICS/MCCB Speed of Processing domain, change in T-score ([2]; Week 0 to Week 8): 5.44
- MATRICS/MCCB Speed of Processing domain, difference PG vs placebo in T-score change ([2]; Week 0 to Week 8): 0.78
- MATRICS/MCCB Verbal learning domain, change in T-score ([2]; Week 0 to Week 8): 3.44
- MATRICS/MCCB Verbal learning domain, difference PG vs placebo in T-score change ([2]; Week 0 to Week 8): 2.67
- MATRICS/MCCB Visual learning domain, change in T-score ([2]; Week 0 to Week 8): 3.78
- MATRICS/MCCB Visual learning domain, difference PG vs placebo in T-score change ([2]; Week 0 to Week 8): −3.78
- MATRICS/MCCB Working memory domain, change in T-score ([2]; Week 0 to Week 8): 5.11
- MATRICS/MCCB Working memory domain, difference PG vs placebo in T-score change ([2]; Week 0 to Week 8): 4.00
- MATRICS/MCCB Composite, difference PG vs placebo in T-score change ([2]; Week 0 to Week 8): 0.00
- MATRICS/MCCB Composite, difference PG vs placebo in T-score change [2, 3]: no difference
- MATRICS/MCCB Composite, change in T-score [2, 3]: 7.00±8.87
- MATRICS/MCCB Composite score ([2]; Week 4): 33.78
- MATRICS/MCCB BACS, symbol coding subtest raw score ([2]; Week 4): 44.78
- MATRICS/MCCB Brief Visuospatial Memory Test-Rev. raw score ([2]; Week 4): 21.33
- MATRICS/MCCB Category fluency test, animal naming raw score ([2]; Week 4): 18.44
- MATRICS/MCCB Continuous Performance Test (CPT), Identical Pairs version-Average d′ raw score ([2]; Week 4): 1.37
- MATRICS/MCCB Hopkins Verbal Learning Test raw score ([2]; Week 4): 20.89
- MATRICS/MCCB Letter-Number Span test raw score ([2]; Week 4): 12.67
- MATRICS/MCCB Mayer-Salovey-Caruso Emotional Intelligence Test, managing emotions branch raw score ([2]; Week 4): 90.60
- MATRICS/MCCB Neuropsychological Assessment Battery, mazes subtest raw score ([2]; Week 4): 15.67
- MATRICS/MCCB Trail Making Test, Part A raw score ([2]; Week 4): 38.33
- MATRICS/MCCB Wechsler Memory Scale, 3rd ed., spatial span subtest raw score ([2]; Week 4): 14.33
- MATRICS/MCCB Composite score ([2]; Week 8): 36.00
- MATRICS/MCCB BACS, symbol coding subtest raw score ([2]; Week 8): 38.67
- MATRICS/MCCB Brief Visuospatial Memory Test-Rev. raw score ([2]; Week 8): 22.33
- MATRICS/MCCB Category fluency test, animal naming raw score ([2]; Week 8): 20.44
- MATRICS/MCCB Continuous Performance Test (CPT), Identical Pairs version-Average d′ raw score ([2]; Week 8): 1.91
- MATRICS/MCCB Hopkins Verbal Learning Test raw score ([2]; Week 8): 21.00
- MATRICS/MCCB Letter-Number Span test raw score ([2]; Week 8): 13.11
- MATRICS/MCCB Mayer-Salovey-Caruso Emotional Intelligence Test, managing emotions branch raw score ([2]; Week 8): 86.10
- MATRICS/MCCB Neuropsychological Assessment Battery, mazes subtest raw score ([2]; Week 8): 17.33
- MATRICS/MCCB Trail Making Test, Part A raw score ([2]; Week 8): 34.33/
- MATRICS/MCCB Wechsler Memory Scale, 3rd ed., spatial span subtest raw score ([2]; Week 8): 14.22
